# Experimental data taken from PMC13226201 (Frontiers in Pharmacology, 2026).
# pIC50: −log10 of the molar value.
# Target: human VMAT2 (Homo sapiens, UniProt Q05940)
# Assay: [3H]-α-DHTBZ radioligand binding in vesicles from human VMAT2-transfected HEK293 cells
# Conditions: read-out: IC50 [3H]-α-DHTBZ binding
# Chain of human VMAT2 (Q05940 whole entry): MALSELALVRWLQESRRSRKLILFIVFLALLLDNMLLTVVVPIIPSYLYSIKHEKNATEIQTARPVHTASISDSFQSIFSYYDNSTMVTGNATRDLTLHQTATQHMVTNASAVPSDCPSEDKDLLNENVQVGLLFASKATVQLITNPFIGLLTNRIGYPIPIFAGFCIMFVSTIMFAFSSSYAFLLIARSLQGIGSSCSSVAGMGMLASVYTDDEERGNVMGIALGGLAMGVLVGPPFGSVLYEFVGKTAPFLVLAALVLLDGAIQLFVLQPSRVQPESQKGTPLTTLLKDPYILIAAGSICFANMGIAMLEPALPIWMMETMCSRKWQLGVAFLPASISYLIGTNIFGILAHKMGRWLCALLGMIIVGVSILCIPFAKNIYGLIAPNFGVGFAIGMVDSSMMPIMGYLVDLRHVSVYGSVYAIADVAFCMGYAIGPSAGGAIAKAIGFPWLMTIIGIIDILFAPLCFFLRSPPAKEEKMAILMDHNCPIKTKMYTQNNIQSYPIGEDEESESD
structure (smiles),measurement,value
"COc1cc2c(cc1OC)C1CC(=O)C(CC(C)C)CN1CC2 (stereo not shown) [TBZ, Tetrabenazine]",pIC50,7.72
